Reference: patent US12018021B2 (UCB Biopharma SRL, priority 2018, dated 2024)

Biological target: IgE-Tb / FcεRIα-Y131A-AF488 (Homo sapiens, UniProt P01854)
Assay: IgE-Tb / FcεRIα-Y131A-AF488 FRET assay (protocol for examples 1 to 233)
Type: binding
Details: examples 1 to 233: 5 nM IgE-Tb, 25 nM FcεRIα-Y131A-AF488, incubated 2 hours at room temperature; read-out: Y131A FRET IC50 range
Method in brief: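 TR-FRET displacement with 5 nM IgE-Tb and 25 nM FcεRIα-Y131A-AF488 (final), 10-point 3-fold compound dilutions from typically 10 μM top, 2% DMSO, 2 h at room temperature. Excitation 330 nm, 520/495 nm emission ratio; MIN set with 200 nM unlabelled FcεRIα. IC50 from four-parameter logistic fit of percent inhibition.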

Sequence of IgE-Tb / FcεRIα-Y131A-AF488 (P01854 1-427 limits assumed, stated change not applied): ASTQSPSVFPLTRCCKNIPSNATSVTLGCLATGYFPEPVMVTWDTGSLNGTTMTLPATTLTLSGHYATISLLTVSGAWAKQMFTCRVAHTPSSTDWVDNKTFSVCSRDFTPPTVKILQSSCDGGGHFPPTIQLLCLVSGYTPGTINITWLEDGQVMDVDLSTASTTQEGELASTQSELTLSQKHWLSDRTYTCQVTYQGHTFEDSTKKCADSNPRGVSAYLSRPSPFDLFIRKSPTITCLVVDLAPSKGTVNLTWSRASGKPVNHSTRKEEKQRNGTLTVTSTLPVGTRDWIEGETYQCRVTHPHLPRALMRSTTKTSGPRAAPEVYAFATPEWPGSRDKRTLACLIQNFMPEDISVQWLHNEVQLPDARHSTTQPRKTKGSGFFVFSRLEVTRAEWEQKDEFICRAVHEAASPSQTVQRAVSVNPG

Question: How did the IC50 turn out when CCNC(=N[N+](=O)[O-])NC1CCc2sc(NC(=O)C3CC3)c(C(=O)NCC3CC3)c2C1 (centres unmarked) [Example 123, 2-(cyclopropanecarbonylamino)-N-(cyclopropylmethyl)-5-[(N-ethyl-N′-nitro-carbamimidoyl)amino]-4,5,6,7-tetrahydrobenzothiophene-3-carboxamide] was run?
Answer: < 1000 nM

Question: O=C(NCC1CC1)c1c(NC(=O)C2CC2)sc2c1C[C@@H](n1cnnc1Nc1cccnc1)CC2 [Example 124, (5S)-2-(Cyclopropanecarbonylamino)-N-(cyclopropylmethyl)-5-[3-(3-pyridylamino)-1,2,4-triazol-4-yl]-4,5,6,7-tetrahydrobenzothiophene-3-carboxamide] was tested. Which IC50 did it give?
Answer: < 1000 nM

Question: For O=C(NCC1CC1)c1c(NC(=O)C2CC2)sc2c1C[C@@H](n1cnnc1Nc1ccc[n+]([O-])c1)CC2 [Example 125, (5S)-2-(Cyclopropanecarbonylamino)-N-(cyclopropylmethyl)-5-[3-[(1-oxidopyridin-1-ium-3-yl)amino]-1,2,4-triazol-4-yl]-4,5,6,7-tetrahydrobenzothiophene-3-carboxamide], which IC50 is on record?
Answer: < 1000 nM

Question: How did the IC50 turn out when Cc1ccc(NC(=N[N+](=O)[O-])NC2CCc3sc(NC(=O)C4CC4)c(C(=O)NCC4CC4)c3C2)cc1 (centres unmarked) [Example 126, 2-(cyclopropanecarbonylamino)-N-(cyclopropylmethyl)-5-[[N′-nitro-N-(p-tolyl)carbamimidoyl]amino]-4,5,6,7-tetrahydrobenzothiophene-3-carboxamide] was run?
Answer: < 1000 nM

Question: Which IC50 does the source give for O=C(NCC1CC1)c1c(NC(=O)C2CC2)sc2c1C[C@@H](n1ccnc1Nc1cccnc1)CC2 [Example 127, (5S)-2-(Cyclopropanecarbonylamino)-N-(cyclopropylmethyl)-5-[2-(3-pyridylamino)imidazol-1-yl]-4,5,6,7-tetrahydrobenzothiophene-3-carboxamide] here?
Answer: < 1000 nM

Question: For O=C(NCC1CC1)c1c(NC(=O)C2CC2)sc2c1C[C@@H](n1cnnc1NCC1CC1)CC2 [Example 130, (5S)-2-(Cyclopropanecarbonylamino)-N-(cyclopropylmethyl)-5-[3-(cyclopropylmethylamino)-1,2,4-triazol-4-yl]-4,5,6,7-tetrahydrobenzothiophene-3-carboxamide], which IC50 is on record?
Answer: < 1000 nM

Question: Which IC50 does the source give for Cc1cc(NC(=S)N[C@H]2CCc3sc(NC(=O)C4CC4)c(C(=O)NCC4CC4)c3C2)n(C)n1 [Example 131, (5S)-2-(Cyclopropanecarbonylamino)-N-(cyclopropylmethyl)-5-[(2,5-dimethylpyrazol-3-yl)carbamothioylamino]-4,5,6,7-tetrahydrobenzothiophene-3-carboxamide] here?
Answer: < 1000 nM

Question: With O=C(NCC1CC1)c1c(NC(=O)C2CC2)sc2c1C[C@@H](n1cnnc1Nc1cncnc1)CC2 [Example 132, (5S)-2-(Cyclopropanecarbonylamino)-N-(cyclopropylmethyl)-5-[3-(pyrimidin-5-ylamino)-1,2,4-triazol-4-yl]-4,5,6,7-tetrahydrobenzothiophene-3-carboxamide] as the compound, how does the IC50 read?
Answer: < 1000 nM

Question: With O=C(NCC1CC1)c1c(NC(=O)C2CC2)sc2c1C[C@@H](n1ccnc1NCC1CC1)CC2 [Example 133, (5S)-2-(Cyclopropanecarbonylamino)-N-(cyclopropylmethyl)-5-[2-(cyclopropylmethylamino)imidazol-1-yl]-4,5,6,7-tetrahydrobenzothiophene-3-carboxamide] as the compound, how does the IC50 read?
Answer: < 1000 nM

Question: For CCNC1=NS(=O)(=O)N=C1NC1CCc2sc(NC(=O)C3CC3)c(C(=O)NCC3CC3)c2C1 (centres unmarked) [Example 134, 2-(Cyclopropanecarbonylamino)-N-(cyclopropylmethyl)-5-[[4-(ethylamino)-1,1-dioxo-1,2,5-thiadiazol-3-yl]amino]-4,5,6,7-tetrahydrobenzothiophene-3-carboxamide], which IC50 is on record?
Answer: < 1000 nM

Question: With Cc1ccc(NC(=C[N+](=O)[O-])NC2CCc3sc(NC(=O)C4CC4)c(C(=O)NCC4CC4)c3C2)cc1 (centres unmarked) [Example 135, 2-(cyclopropanecarbonylamino)-N-(cyclopropylmethyl)-5-[[1-(4-methylanilino)-2-nitro-vinyl]amino]-4,5,6,7-tetrahydrobenzothiophene-3-carboxamide] as the compound, how does the IC50 read?
Answer: < 1000 nM
